{"source": "ChEMBL document CHEMBL1158466", "about": "“Discovery of novel 2-aminobenzamide inhibitors of heat shock protein 90 as potent, selective and orally active antitumor agents” (J Med Chem, 2009)", "key": {"[1]": {"assay": "Apparent volume of distribution with respect to bioavailability in Swiss Webster mouse at 25 mg/kg, po", "assay_type": "ADME, organism-based", "details": "in vivo, read-out: Vc/F"}, "[2]": {"assay": "Apparent volume of distribution with respect to bioavailability in Swiss Webster mouse at 10 mg/kg, po", "assay_type": "ADME, organism-based", "details": "in vivo, read-out: Vc/F"}, "[3]": {"assay": "Cmax in Swiss Webster mouse at 25 mg/kg, po", "assay_type": "ADME, organism-based", "design": "dose 25 mg/kg, route oral", "details": "in vivo"}, "[4]": {"assay": "AUC (infinity) in Swiss Webster mouse at 10 mg/kg, po", "assay_type": "ADME, organism-based", "design": "time infinity, dose 10 mg/kg, route oral", "details": "plasma"}, "[5]": {"assay": "Cmax in Swiss Webster mouse at 50 mg/kg, po", "assay_type": "ADME, organism-based", "design": "dose 50 mg/kg, route oral", "details": "in vivo"}, "[6]": {"biological_target": "T1, Heat shock protein HSP90 (Homo sapiens, UniProt P07900+P08238)", "details": "a-375", "description": "Inhibition of Hsp90 in human A375 cells assessed as pS6 degradation after 24 hrs by high content screening"}, "[7]": {"assay": "Tmax in Swiss Webster mouse at 10 mg/kg, po", "assay_type": "ADME, organism-based", "design": "dose 10 mg/kg, route oral", "details": "in vivo"}, "[8]": {"tested_on": "HCT-15", "assay": "Antiproliferative activity against human HCT15 cells after 72 to 144 hrs by cyquant DNA dye method", "assay_type": "functional, cell-based"}, "[9]": {"tested_on": "Mus musculus", "assay": "Apparent volume of distribution with respect to bioavailability in Swiss Webster mouse at 10 mg/kg, iv", "assay_type": "ADME, organism-based", "details": "in vivo"}, "[10]": {"biological_target": "T1, Heat shock protein HSP90", "details": "a-375", "remark": "listed apart in the source", "description": "Inhibition of Hsp90 in human A375 cells assessed as Hsp70 induction after 24 hrs by high content screening"}, "[11]": {"assay": "Solubility at pH 4 to […]", "assay_type": "physicochemical", "details": "buffer"}, "[12]": {"assay": "AUC (infinity) in Swiss Webster mouse at 50 mg/kg, po", "assay_type": "ADME, organism-based", "design": "time infinity, dose 50 mg/kg, route oral", "details": "plasma"}, "[13]": {"assay": "AUC (infinity) in Swiss Webster mouse at 25 mg/kg, po", "assay_type": "ADME, organism-based", "design": "time infinity, dose 25 mg/kg, route oral", "details": "plasma"}, "[14]": {"assay": "Apparent volume of distribution with respect to bioavailability in Swiss Webster mouse at 50 mg/kg, po", "assay_type": "ADME, organism-based", "details": "in vivo, read-out: Vc/F"}, "[15]": {"tested_on": "NCI-H460", "assay": "Antiproliferative activity against human NCI-H460 cells after 72 to 144 hrs by cyquant DNA dye method", "assay_type": "functional, cell-based"}, "[16]": {"assay": "AUC (infinity) in Swiss Webster mouse at 10 mg/kg, iv", "assay_type": "ADME, organism-based", "design": "time infinity, dose 10 mg/kg, route intravenous", "details": "plasma"}, "[17]": {"tested_on": "HT-29", "assay": "Antitumor activity against human HT-29 cells xenografted nu/nu mouse assessed as median time for tumor to reach end point at 50 mg/kg, po administered 3 times a week for 3 weeks", "assay_type": "functional"}, "[18]": {"tested_on": "Mus musculus", "assay": "Toxicity in nu/nu mouse assessed as mortality at 5 to 50 mg/kg, po", "assay_type": "organism-based", "design": "dose 5-50 mg/kg, route oral", "details": "in vivo"}, "[19]": {"assay": "Tmax in Swiss Webster mouse at 50 mg/kg, po", "assay_type": "ADME, organism-based", "design": "dose 50 mg/kg, route oral", "details": "in vivo"}, "[20]": {"tested_on": "SW-620", "assay": "Antiproliferative activity against human SW620 cells after 72 to 144 hrs by cyquant DNA dye method", "assay_type": "functional, cell-based"}, "[21]": {"tested_on": "MDA-MB-231", "assay": "Antiproliferative activity against human MDA-MB-231 cells after 72 to 144 hrs by cyquant DNA dye method", "assay_type": "functional, cell-based"}, "[22]": {"tested_on": "HT-29", "assay": "Antiproliferative activity against human HT-29 cells after 72 to 144 hrs by cyquant DNA dye method", "assay_type": "functional, cell-based"}, "[23]": {"assay": "Apparent oral clearance in Swiss Webster mouse at 25 mg/kg, po", "assay_type": "ADME, organism-based", "design": "dose 25 mg/kg, route oral", "details": "in vivo"}, "[24]": {"biological_target": "T1, Heat shock protein HSP90", "assay_type": "cell-based", "details": "au565"}, "[25]": {"assay": "Tmax in Swiss Webster mouse at 25 mg/kg, po", "assay_type": "ADME, organism-based", "design": "dose 25 mg/kg, route oral", "details": "in vivo"}, "[26]": {"assay": "Apparent oral clearance in Swiss Webster mouse at 10 mg/kg, po", "assay_type": "ADME, organism-based", "design": "dose 10 mg/kg, route oral", "details": "in vivo"}, "[27]": {"biological_target": "T1, Heat shock protein HSP90", "details": "au565", "description": "Inhibition of Hsp90 in human AU565 cells assessed as pERK degradation after 24 hrs by high content screening"}, "[28]": {"tested_on": "LNCaP", "assay": "Antiproliferative activity against human LNCAP cells after 72 to 144 hrs by cyquant DNA dye method", "assay_type": "functional, cell-based"}, "[29]": {"assay": "Clearance in Swiss Webster mouse at 10 mg/kg, iv", "details": "in vivo"}, "[30]": {"assay": "Half life in Swiss Webster mouse at 10 mg/kg, iv", "assay_type": "ADME, organism-based", "design": "dose 10 mg/kg, route intravenous", "details": "in vivo"}, "[31]": {"tested_on": "A-375", "assay": "Antiproliferative activity against human A375 cells after 72 to 144 hrs by cyquant DNA dye method", "assay_type": "functional, cell-based"}, "[32]": {"tested_on": "MCF7", "assay": "Antiproliferative activity against human MCF7 cells after 72 to 144 hrs by cyquant DNA dye method", "assay_type": "functional, cell-based"}, "[33]": {"tested_on": "Mus musculus", "assay": "Toxicity in nu/nu mouse assessed as effect on body weight at 5 to 50 mg/kg, po", "assay_type": "organism-based", "design": "dose 5-50 mg/kg, route oral", "details": "in vivo"}, "[34]": {"assay": "Half life in Swiss Webster mouse at 10 mg/kg, po", "assay_type": "ADME, organism-based", "design": "dose 10 mg/kg, route oral", "details": "in vivo"}, "[35]": {"tested_on": "PC-3", "assay": "Antiproliferative activity against human PC3 cells after 72 to 144 hrs by cyquant DNA dye method", "assay_type": "functional, cell-based"}, "[36]": {"tested_on": "HT-29", "assay": "Antitumor activity against human HT-29 cells xenografted nu/nu mouse assessed as tumor growth delay at 50 mg/kg, po administered 3 times a week for 3 weeks", "assay_type": "functional"}, "[37]": {"assay": "Apparent oral clearance in Swiss Webster mouse at 50 mg/kg, po", "assay_type": "ADME, organism-based", "design": "dose 50 mg/kg, route oral", "details": "in vivo"}, "[38]": {"assay": "Cmax in Swiss Webster mouse at 10 mg/kg, po", "assay_type": "ADME, organism-based", "design": "dose 10 mg/kg, route oral", "details": "in vivo"}, "[39]": {"assay": "Binding affinity to pig spleen Hsp90 ATPase pocket by Bradford assay", "assay_type": "tissue-based, Sus scrofa"}, "[40]": {"tested_on": "SK-MEL-5", "assay": "Antiproliferative activity against human SK-MEL-5 cells after 72 to 144 hrs by cyquant DNA dye method", "assay_type": "functional, cell-based"}, "[41]": {"assay": "Cmax in Swiss Webster mouse at 10 mg/kg, iv", "assay_type": "ADME, organism-based", "design": "dose 10 mg/kg, route intravenous", "details": "in vivo"}, "[42]": {"tested_on": "HT-29", "assay": "Antitumor activity against human HT-29 cells xenografted nu/nu mouse assessed as tumor growth delay at 25 mg/kg, po administered 3 times a week for 3 weeks", "assay_type": "functional"}, "[43]": {"assay": "Half life in Swiss Webster mouse at 25 mg/kg, po", "assay_type": "ADME, organism-based", "design": "dose 25 mg/kg, route oral", "details": "in vivo"}, "[44]": {"assay": "Half life in Swiss Webster mouse at 50 mg/kg, po", "assay_type": "ADME, organism-based", "design": "dose 50 mg/kg, route oral", "details": "in vivo"}, "[45]": {"assay": "Tmax in Swiss Webster mouse at 10 mg/kg, iv", "assay_type": "ADME, organism-based", "design": "dose 10 mg/kg, route intravenous", "details": "in vivo"}, "[46]": {"tested_on": "K562", "assay": "Antiproliferative activity against human K562 cells after 72 to 144 hrs by cyquant DNA dye method", "assay_type": "functional, cell-based"}}}
{"smiles": "CC1(C)CC(=O)c2c(C(F)(F)F)nn(-c3ccc(C(N)=O)c(N[C@H]4CC[C@H](OC(=O)CN)CC4)c3)c2C1.CS(=O)(=O)O", "values": [{"measurement": "Vd/F", "setting": "[1]", "result": 9.59, "unit": "L/kg"}, {"measurement": "Vd/F", "setting": "[2]", "result": 8.93, "unit": "L/kg"}, {"measurement": "Cmax", "setting": "[3]", "result": 2150, "unit": "ng/mL"}, {"measurement": "AUC(0-inf)", "setting": "[4]", "result": 3970, "unit": "ng·h/mL"}, {"measurement": "Cmax", "setting": "[5]", "result": 4020, "unit": "ng/mL"}, {"measurement": "IC50", "setting": "[6]", "result": 61, "unit": "nM"}, {"measurement": "Tmax", "setting": "[7]", "result": 1, "unit": "h"}, {"measurement": "IC50", "setting": "[8]", "result": 190, "unit": "nM"}, {"measurement": "Vc/F", "setting": "[9]", "result": 7.846, "unit": "L/kg"}, {"measurement": "IC50", "setting": "[10]", "result": 13, "unit": "nM"}, {"measurement": "solubility", "setting": "[11]", "result": 1000, "unit": "µg/mL"}, {"measurement": "AUC(0-inf)", "setting": "[12]", "result": 25200, "unit": "ng·h/mL"}, {"measurement": "AUC(0-inf)", "setting": "[13]", "result": 11000, "unit": "ng·h/mL"}, {"measurement": "Vd/F", "setting": "[14]", "result": 9.55, "unit": "L/kg"}, {"measurement": "IC50", "setting": "[15]", "result": 215, "unit": "nM"}, {"measurement": "AUC(0-inf)", "setting": "[16]", "result": 4870, "unit": "ng·h/mL"}, {"measurement": "Activity", "setting": "[17]", "result": 43.2, "unit": "days"}, {"measurement": "Activity", "setting": "[18]", "result": "Non-toxic"}, {"measurement": "Tmax", "setting": "[19]", "result": 2, "unit": "h"}, {"measurement": "IC50", "setting": "[20]", "result": 19, "unit": "nM"}, {"measurement": "IC50", "setting": "[21]", "result": 38, "unit": "nM"}, {"measurement": "IC50", "setting": "[22]", "result": 32, "unit": "nM"}, {"measurement": "CL/F", "setting": "[23]", "result": 37.9, "unit": "mL/min/kg"}, {"measurement": "IC50", "setting": "[24]", "result": 5, "unit": "nM"}, {"measurement": "Tmax", "setting": "[25]", "result": 1, "unit": "h"}, {"measurement": "CL/F", "setting": "[26]", "result": 42, "unit": "mL/min/kg"}, {"measurement": "IC50", "setting": "[27]", "result": 11, "unit": "nM"}, {"measurement": "IC50", "setting": "[28]", "result": 31, "unit": "nM"}, {"measurement": "clearance", "setting": "[29]", "result": 34.2, "unit": "mL/min/kg"}, {"measurement": "half-life", "setting": "[30]", "result": 2.6, "unit": "h"}, {"measurement": "IC50", "setting": "[31]", "result": 51, "unit": "nM"}, {"measurement": "IC50", "setting": "[32]", "result": 16, "unit": "nM"}, {"measurement": "Activity", "setting": "[33]", "result": "Non-toxic"}, {"measurement": "half-life", "setting": "[34]", "result": 2.5, "unit": "h"}, {"measurement": "IC50", "setting": "[35]", "result": 114, "unit": "nM"}, {"measurement": "Activity", "setting": "[36]", "result": 67, "unit": "%"}, {"measurement": "CL/F", "setting": "[37]", "result": 33.1, "unit": "mL/min/kg"}, {"measurement": "Cmax", "setting": "[38]", "result": 747, "unit": "ng/mL"}, {"measurement": "Kd", "setting": "[39]", "result": 41, "unit": "nM"}, {"measurement": "IC50", "setting": "[40]", "result": 25, "unit": "nM"}, {"measurement": "Cmax", "setting": "[41]", "result": 4460, "unit": "ng/mL"}, {"measurement": "Activity", "setting": "[42]", "result": 14, "unit": "%"}, {"measurement": "half-life", "setting": "[43]", "result": 2.9, "unit": "h"}, {"measurement": "half-life", "setting": "[44]", "result": 3.3, "unit": "h"}, {"measurement": "Tmax", "setting": "[45]", "result": 4.98, "unit": "min"}, {"measurement": "IC50", "setting": "[46]", "result": 23, "unit": "nM"}]}
